Experimental findings from patent US6534523B1, “Hepatitis C inhibitor tri-peptides” (Boehringer Ingelheim (Canada) Ltd., priority 1998, dated 2003) are described below.

Like-named read-outs stand apart in the source and are kept apart here.

Holding throughout (type): biochemical, HCV genotype 1b
Assay [1] has as its target HCV NS3 protease (UniProt P26663). As to conditions: read-out: activity / potency (HCV NS3 protease inhibition); text comparison of P1 configuration. As to the method: (§1) Recombinant HCV NS3 Protease/NS4A Cofactor Peptide Radiometric Assay
(§2) The enzyme was cloned, expressed and prepared according to the protocol described in Example 36. The enzyme was stored at −80° C., thawed on ice and diluted just prior to use in the assay buffer containing the NS4A cofactor peptide.
(§3) The substrate used for the NS3 protease/NS4A cofactor peptide radiometric assay, DDIVPC-SMSYTW, is cleaved between the cysteine and the serine residues by the enzyme. The sequence DDIVPC-SMSYTW corresponds to the NS5A/NS5B natural cleavage site in which the cysteine residue in P2 has been substituted for a proline. […] (molar ratio enzyme:cofactor 1:100) in the absence or presence of inhibitors. The separation of substrate from products is performed by adding avidin-coated agarose beads to the assay mixture followed by filtration. […]
(§4) The NS2-NS5B-3′ non coding region was cloned by RT-PCR into the pCR®3 vector (Invitrogen) using RNA extracted from the serum of an HCV genotype 1b infected individual (provided by Dr. Bernard Willems, Hôpital St-Luc, Montréal, Québec, Canada). […] Fluorescence of the N-terminal product was monitored on a Perkin-Elmer LS-50B fluorometer equipped with a 96-well plate reader (excitation wavelength: 325 nm; emission wavelength: 423 nm). […]

The target is the same in assay [2]. Further details: rows headed: IC50 (μM); IC50 (μM).
For assay [3] the target is unchanged. Further details: rows headed: difference in potency between (1R,2S) compound and its (1S,2S) isomer; other: 801 vs. corresponding (1S,2S) isomer. As to conditions: 801 vs. corresponding (1S,2S) isomer. As to the method:
as §1, §2, §3, §4

HCV NS3 protease, sequence (P26663 1027-1206, other chains not shown): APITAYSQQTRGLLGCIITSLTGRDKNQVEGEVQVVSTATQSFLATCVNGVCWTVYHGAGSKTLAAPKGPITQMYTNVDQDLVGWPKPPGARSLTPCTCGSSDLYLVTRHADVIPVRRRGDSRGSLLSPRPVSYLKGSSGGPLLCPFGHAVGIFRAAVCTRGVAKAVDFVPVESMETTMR

With `C=CC1CC1(NC(=O)C1CC(Oc2cc(-c3ccccc3)nc3cc(OC)ccc23)CN1C(=O)C(NC(=O)NC(C)(C)C)C(C)(C)C)C(=O)O` (stereo not drawn) [compound 801], the IC50 in assay [1] and in assay [2] (Table 8) was 6 nM each time. The “difference in potency between (1R,2S) compound and its (1S,2S) isomer” value in assay [3] is given as “over 1500 fold”. Consider `C=CC1CC1(NC(=O)C1CC(Oc2cc(-c3ccccc3)nc3cc(OC)ccc23)CN1C(=O)C(NC(=O)OC(C)(C)C)C(C)(C)C)C(=O)O` (stereo not drawn) [compound 901], for which the IC50 in assay [1] and in assay [2] (Table 9) was 25 nM each time. In the case of `C=CC1CC1(NC(=O)C1CC(Oc2cc(-c3cccs3)nc3cc(OC)ccc23)CN1C(=O)C(NC(=O)OC(C)(C)C)C(C)(C)C)C(=O)O` (stereo not drawn) [compound 706], the IC50 in assay [2] (Table 7) was determined as 32 nM. Consider `C=CC1CC1(NC(=O)C1CC(Oc2cc(-c3ccccc3)nc3cc(OC)ccc23)CN1C(=O)C(Nc1ccc(Cl)cc1)C(C)C)C(=O)O` (stereo not drawn) [compound 837], for which the IC50 in assay [2] (Table 8) turned out to be 98 nM. Consider `C=CC1CC1(NC(=O)C1CC(Oc2cc(-c3ccccc3)nc3cc(OC)ccc23)CN1C(=O)C(NC(=O)N(C)C(C)(C)C)C(C)(C)C)C(=O)O` (stereo not drawn) [compound 858], for which the IC50 in assay [2] (Table 8) came to 205 nM.

In assay [2] (Table 8), `C=CC1CC1(NC(=O)C1CC(Oc2cc(-c3ccccc3)nc3cc(OC)ccc23)CN1C(=O)C(NC(=O)OC1CCOC1)C(C)(C)C)C(=O)O` (stereo not drawn) [compound 865] gave an IC50 of 20 nM. For `C=CC1CC1(NC(=O)C1CC(Oc2cc(CN(C)C)nc3ccccc23)CN1C(=O)C(NC(=O)OC(C)(C)C)C(C)(C)C)C(=O)O` (stereo not drawn) [compound 618], the IC50 in assay [2] (Table 6) was determined as 2300 nM. Consider `C=CC1CC1(NC(=O)C1CC(Oc2cc(-c3ccccc3)nc3cc(OC)ccc23)CN1C(=O)C(NC(=O)c1cccc(O)c1C)C(C)(C)C)C(=O)O` (stereo not drawn) [compound 911], for which the IC50 in assay [2] (Table 9) stood at 39 nM. Regarding `C=CC1CC1(NC(=O)C1CC(Oc2cc(-c3csc(NC)n3)nc3cc(OC)ccc23)CN1C(=O)C(NC(=O)OC(C)(C)C)C(C)(C)C)C(=O)O` (stereo not drawn) [compound 717], the IC50 in assay [2] (Table 7) was determined as 28 nM.

The compound `C=CC1CC1(NC(=O)C1CC(Oc2cc(-c3ccccc3)nc3cc(OC)ccc23)CN1C(=O)C(NS(=O)(=O)c1sc(NC(C)=O)nc1C)C(C)(C)C)C(=O)O` (stereo not drawn) [compound 914] came in with an IC50 in assay [2] (Table 9) of 31 nM. Consider `C=CC1CC1(NC(=O)C1CC(Oc2cc(-c3ccccc3)nc3cc(OC)ccc23)CN1C(=O)C(Nc1ccc([N+](=O)[O-])c(C(F)(F)F)c1)C(C)C)C(=O)O` (stereo not drawn) [compound 819], for which the IC50 in assay [2] (Table 8) amounted to 320 nM.

`C=C[C@H]1C[C@]1(NC(=O)[C@@H]1C[C@@H](Oc2ccnc3ccccc23)CN1C(=O)[C@@H](NC(=O)OC(C)(C)C)C1CCCCC1)C(=O)O` [compound 306] came in with an IC50 in assay [2] (Table 3) of 800 nM. With `C=CC1CC1(NC(=O)C1CC(Oc2cc(-c3ccccc3)nc3cc(OC)ccc23)CN1C(=O)C(NC(=O)NC(C)(CC)CC)C(C)(C)C)C(=O)O` (stereo not drawn) [compound 871], the IC50 in assay [2] (Table 8) turned out to be 11 nM. Compound `CC[C@H]1C[C@]1(NC(=O)[C@@H]1C[C@@H](OCc2cccc3ccccc23)CN1C(=O)[C@@H](NC(=O)OCC(C)C)C(C)C)C(=O)O` [compound 302] showed an IC50 in assay [2] (Table 3) of 12500 nM. The same measure, in the same setting: for `C=C[C@H]1C[C@]1(NC(=O)[C@@H]1C[C@@H](Oc2cccc3ccccc23)CN1C(=O)[C@@H](NC(=O)OC(C)(C)C)C1CCCCC1)C(=O)O` [compound 308] the value was 1600 nM. As for `C=CC1CC1(NC(=O)C1CC(Oc2cc(N3CCCCC3)nc3ccccc23)CN1C(=O)C(NC(=O)OC(C)(C)C)C(C)(C)C)C(=O)O` (stereo not drawn) [compound 617], in assay [2] (Table 6), the IC50 amounted to 345 nM. In assay [2] (Table 8), `C=CC1CC1(NC(=O)C1CC(Oc2cc(-c3ccccc3)nc3cc(OC)ccc23)CN1C(=O)C(Nc1cccc(C(C)=O)c1)C(C)C)C(=O)O` (stereo not drawn) [compound 828] came in with an IC50 of 100 nM.

In assay [2] (Table 6), `C=CC1CC1(NC(=O)C1CC(Oc2ccnc3cc(N(C)C)ccc23)CN1C(=O)C(NC(=O)OC(C)(C)C)C(C)(C)C)C(=O)O` (stereo not drawn) [compound 615] displayed an IC50 of 160 nM.
